The source of these data is patent US20130178449A1, “2-Methylene-20(21)-Dehydro-19,24,25,26,27-Pentanor-Vitamin D Analogs” (WISCONSIN ALUMNI RESEARCH FOUNDATION, priority 2011, published 2013).

The term EC50 denotes the concentration giving half of the maximal effect. A word on the Ki: it is the dissociation constant of the complex between target and ligand, obtained from inhibition or displacement.

Like-named read-outs stand apart in the source and are kept apart here.

One assay deals with HL-60 cells. The experiment in a line: HL-60 differentiation (nitro blue tetrazolium reduction). The settings on record: for EC50: HL-60 cells into monocytes, FIG. 2, read-out: EC50, HL-60 cell differentiation. Format: cell-based, human. As for the experimental part:
The study drugs were dissolved in ethanol and the concentrations determined using UV spectrophotometry. Serial dilutions were prepared so that a range of drug concentrations could be tested without changing the final concentration of ethanol (≦0.2%) present in the cell cultures.
Human promyelocytic leukemia (HL60) cells were grown in RPMI-1640 medium containing 10% fetal bovine serum. The cells were incubated at 37° C. in the presence of 5% CO2.
HL60 cells were plated at 1.2×10^5 cells/ml. Eighteen hours after plating, cells in duplicate were treated with drug. Four days later, the cells were harvested and a nitro blue tetrazolium reduction assay was performed (Collins et al., 1979; J. Exp. Med. 149:969-974). The percentage of differentiated cells was determined by counting a total of 200 cells and recording the number that contained intracellular black-blue formazan deposits. Verification of differentiation to monocytic cells was determined by measuring phagocytic activity (data not shown).

For assay [1], the system named is 24-hydroxylase (24Ohase) gene promoter. The experiment in a line: In vitro transcription assay (24-hydroxylase promoter luciferase reporter in ROS 17/2.8 bone cells). Format: cell-based. The settings on record: for EC50: ROS 17/2.8 cells, 24-hydroxylase gene, FIG. 3, read-out: EC50, transcriptional activity in bone cells. As for the experimental part:
Transcription activity was measured in ROS 17/2.8 (bone) cells that were stably transfected with a 24-hydroxylase (24Ohase) gene promoter upstream of a luciferase reporter gene (Arbour et al., 1998). Cells were given a range of doses. Sixteen hours after dosing the cells were harvested and luciferase activities were measured using a luminometer.
RLU=relative luciferase units.
In general terms: In a reporter assay the amount or activity of a reporter protein is the signal.

Assay [2] is described as follows: Bone calcium mobilization (serum calcium) in vitamin D-deficient rats. The settings on record: ip, 4 consecutive days, rats on 0.02% Ca diet. Format: in vivo, rat. The protocol: (§1) Male, weanling Sprague-Dawley rats were placed on Diet 11 (0.47% Ca) diet+AEK oil for one week followed by Diet 11 (0.02% Ca)+AEK oil for 3 weeks. The rats were then switched to a diet containing 0.47% Ca for one week followed by two weeks on a diet containing 0.02% Ca. Dose administration began during the last week on 0.02% calcium diet. Four consecutive ip doses were given approximately 24 hours apart. Twenty-four hours after the last dose, blood was collected from the severed neck and the concentration of serum calcium determined as a measure of bone calcium mobilization. The first 10 cm of the intestine was also collected for intestinal calcium transport analysis using the everted gut sac method.

Assay [3] in a line: Intestinal calcium transport (everted gut sac) in vitamin D-deficient rats. In kind it is in vivo, rat. The settings on record: ip, 4 consecutive days. The protocol:
as §1

Assay [4] has as its target T1, full-length recombinant rat vitamin D receptor (Rattus norvegicus, UniProt P13053).
T1 construct: Full-length recombinant rat receptor was expressed in E. coli BL21 (DE3) Codon Plus RIL cells; histidine tag (C); made in house; host or cells: E. coli BL21 (DE3) Codon Plus RIL
T1 sequence (P13053 1-423): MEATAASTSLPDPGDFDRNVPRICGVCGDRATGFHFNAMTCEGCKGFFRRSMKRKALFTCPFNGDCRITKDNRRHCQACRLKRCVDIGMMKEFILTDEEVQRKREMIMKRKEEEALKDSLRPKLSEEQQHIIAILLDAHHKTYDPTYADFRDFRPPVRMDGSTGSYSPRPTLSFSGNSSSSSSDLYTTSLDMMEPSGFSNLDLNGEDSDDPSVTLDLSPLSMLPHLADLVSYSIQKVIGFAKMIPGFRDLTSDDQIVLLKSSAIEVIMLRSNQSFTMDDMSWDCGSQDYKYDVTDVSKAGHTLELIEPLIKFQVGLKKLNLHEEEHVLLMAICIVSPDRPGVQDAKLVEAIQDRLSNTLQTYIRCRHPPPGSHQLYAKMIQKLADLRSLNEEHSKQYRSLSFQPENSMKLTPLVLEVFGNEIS
The experiment in a line: Vitamin D receptor binding (competition with [3H]-1,25(OH)2D3). The protocol: Full-length recombinant rat receptor was expressed in E. coli BL21 (DE3) Codon Plus RIL cells and purified to homogeneity using two different column chromatography systems. The first system was a nickel affinity resin that utilizes the C-terminal histidine tag on this protein. The protein that was eluted from this resin was further purified using ion exchange chromatography (S-Sepharose Fast Flow). Aliquots of the purified protein were quick frozen in liquid nitrogen and stored at −80° C. until use. For use in binding assays, the protein was diluted in TEDK50 (50 mM Tris, 1.5 mM EDTA, pH7.4, 5 mM DTT, 150 mM KCl) with 0.1% Chaps detergent. The receptor protein and ligand concentration were optimized such that no more than 20% of the added radiolabeled ligand was bound to the receptor.
Radiolabeled and unlabeled ligands were added to 100 mcl of the diluted protein at a final ethanol concentration of ≦10%, mixed and incubated overnight on ice to reach binding equilibrium. The following day, 100 mcl of hydroxylapatite slurry (50%) was added to each tube and mixed at 10-minute intervals for 30 minutes. The hydroxylapaptite was collected by centrifugation and then washed three times with Tris-EDTA buffer (50 mM Tris, 1.5 mM EDTA, pH 7.4) containing 0.5% Titron X-100. […] Total binding was determined from the tubes containing only radiolabeled ligand.

Take `C=C1/C(=C\C=C2/CCC[C@]3(C)[C@@H]([C@H](C)CCCC(C)(C)O)CC[C@@H]23)C[C@@H](O)C[C@@H]1O` [1,25(OH)2D3, 1α,25-dihydroxyvitamin D3, reference compound]: the EC50 is 3 nM in the assay with HL-60 cells and 0.2 nM in assay [1]. Also, in assay [2] (260 pmol/day), the “bone calcium mobilization (serum calcium)” value is “increased serum calcium levels”. In assay [3] (260 pmol/day), the intestinal calcium transport result is recorded as “significant increase”.

As for `C=C1[C@H](O)CC(=C/C=C2\CCC[C@]3(C)[C@@H](C(=C)CC)CC[C@@H]23)C[C@H]1O` [MDBE 20, 2-methylene-20(21)-dehydro-19,24,25,26,27-pentanor-1α-hydroxyvitamin D3], the “VDR binding activity relative to 1α,25-dihydroxyvitamin D3” value in assay [4] (compared to native hormone) is given as “about one-half log less active”. Further, the Ki in assay [4] (full-length recombinant rat VDR, FIG. 1) was 0.08 nM. Besides, the EC50 worked out at 30 nM in the assay on HL-60 cells (Homo sapiens) and 4 nM in assay [1]. Besides, in the assay with HL-60 cells (compared to 1,25(OH)2D3), the “times less potent than 1,25(OH)2D3 on HL-60 cell differentiation” value is “about 10 times”. Further, the “times less potent than 1,25(OH)2D3 in increasing transcription of the 24-hydroxylase gene” value in assay [1] (bone cells, compared to 1,25(OH)2D3) is recorded as 10 times. Also, the “bone calcium mobilization (serum calcium)” value in assay [2] (7020 pmol/day) is listed as “did not result in mobilization of bone calcium”; in assay [2] (35100 pmol/day), “no substantial effect was seen”. Further, the intestinal calcium transport result in assay [3] (7020 pmol/day) and in assay [3] (35100 pmol/day) was “does not promote intestinal calcium transport” each time.
